Data on 32 compounds can be found in patent US10385022B2, “3-amino-pyridines as GPBAR1 agonists” (HOFFMANN-LA ROCHE INC., priority 2011, dated 2019).

This assay concerns the target human GPBAR1 receptor (Homo sapiens (Human), UniProt Q8TDU6). Put plainly: functional cAMP assay in CHO-dhfr(minus) cells expressing human GPBAR1 receptors. It is filed as cell-based. To be noted: CHO-dhfr(minus) cells expressing human GPBAR1, 30 min at 30° C. Put shortly:
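Functional cAMP responses in a human GPBAR1-transfected CHO-dhfr- clone, picked using lithocholic acid as agonist, gave the EC50 values. Parallel testing in untransfected CHO cells served as a specificity control.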

Sequence of human GPBAR1 receptor (Q8TDU6 whole entry): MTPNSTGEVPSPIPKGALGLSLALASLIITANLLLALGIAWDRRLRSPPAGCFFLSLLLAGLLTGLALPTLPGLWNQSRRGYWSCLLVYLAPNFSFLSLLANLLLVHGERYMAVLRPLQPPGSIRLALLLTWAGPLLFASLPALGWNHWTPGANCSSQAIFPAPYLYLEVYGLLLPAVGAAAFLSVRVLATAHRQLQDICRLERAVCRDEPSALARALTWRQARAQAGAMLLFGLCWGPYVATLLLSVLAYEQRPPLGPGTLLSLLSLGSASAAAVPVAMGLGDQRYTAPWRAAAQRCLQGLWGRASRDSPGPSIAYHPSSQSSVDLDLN

`Cc1ccccc1-c1ccncc1N(C)C(=O)c1cc([N+](=O)[O-])cc(C(F)(F)F)c1` [Example 184, N-Methyl-3-nitro-N-(4-o-tolylpyridin-3-yl)-5-(trifluoromethyl)benzamide] registered a concentration for a half-maximal effect (EC50) of 15 nM.

For the compound `Cc1ccccc1-c1ccncc1N(C)C(=O)c1cc(N2CCCC2=O)cc(C(F)(F)F)c1` [Example 185, N-Methyl-3-(2-oxo-pyrrolidin-1-yl)-N-(4-o-tolyl-pyridin-3-yl)-5-trifluoromethyl-benzamide], the 50% effective concentration (EC50) was found to be 2400 nM. With `COc1cc(F)ccc1-c1ccncc1N(CC(N)=O)C(=O)c1cc(C(F)(F)F)cc(S(C)(=O)=O)c1` [Example 187, N-Carbamoylmethyl-N-[4-(4-fluoro-2-methoxy-phenyl)-pyridin-3-yl]-3-methanesulfonyl-5-trifluoromethyl-benzamide], it took 478 nM to reach a half-maximal effect (EC50).

In turn, `COC(=O)CN(C(=O)c1cc(C(F)(F)F)cc(C(F)(F)F)c1)c1cnccc1-c1cc(F)c(F)cc1OC` [Example 188, {(3,5-Bis-trifluoromethyl-benzoyl)-[4-(4,5-difluoro-2-methoxy-phenyl)-pyridin-3-yl]-amino}-acetic acid methyl ester] displayed a 50% effective concentration (EC50) of 70 nM.

`COc1cc(F)c(F)cc1-c1ccncc1N(CC(N)=O)C(=O)c1cc(C(F)(F)F)cc(C(F)(F)F)c1` [Example 189, N-Carbamoylmethyl-N-[4-(4,5-difluoro-2-methoxy-phenyl)-pyridin-3-yl]-3,5-bis-trifluoromethyl-benzamide] yielded a half-maximal effective concentration (EC50) of 47 nM. Compound `Cc1ccccc1-c1ccncc1N(C)C(=O)c1cc(C(F)(F)F)cc(C(F)(F)F)n1` [Example 190, 4,6-Bis-trifluoromethyl-pyridine-2-carboxylic acid methyl-(4-o-tolyl-pyridin-3-yl)-amide] returned a concentration giving a half-maximal response (EC50) of 89 nM. Consider `CS(=O)(=O)CCN(C(=O)c1cc(C(F)(F)F)cc(C(F)(F)F)c1)c1cnccc1-c1ccccc1F` [Example 191, N-[4-(2-Fluoro-phenyl)-pyridin-3-yl]-N-(2-methanesulfonyl-ethyl)-3,5-bis-trifluoromethyl-benzamide], for which a half-maximal response (EC50) required 111 nM. In the case of `COc1cc(F)ccc1-c1ccncc1N(CCS(C)(=O)=O)C(=O)c1cc(C(F)(F)F)cc(C(F)(F)F)c1` [Example 192, N-[4-(4-Fluoro-2-methoxy-phenyl)-pyridin-3-yl]-N-(2-methanesulfonyl-ethyl)-3,5-bis-tri fluoro methyl-benzamide] it was 105 nM. `COc1cc(F)c(F)cc1-c1ccncc1N(CC(N)=O)C(=O)c1cc(C(F)(F)F)cc(S(C)(=O)=O)c1` [Example 193, N-(2-Amino-2-oxoethyl)-N-(4-(4,5-difluoro-2-methoxyphenyl)pyridin-3-yl)-3-(methylsulfonyl)-5-(trifluoromethyl)benzamide]: the EC50 was determined as 456 nM. In the case of `Cc1ccccc1-c1ccncc1N(C)C(=O)c1cc(C(F)(F)F)nc(S(C)(=O)=O)c1` [Example 194, 2-Methanesulfonyl-N-methyl-N-(4-o-tolyl-pyridin-3-yl)-6-trifluoromethyl-isonicotinamide] it was 258 nM.

With `COC(=O)CN(C(=O)c1cc(C(F)(F)F)nc(C(F)(F)F)c1)c1cnccc1-c1c(F)cccc1OC` [Example 195, Methyl 2-(N-(4-(2-fluoro-6-methoxyphenyl)pyridin-3-yl)-2,6-bis(trifluoromethyl)isonicotinamido)acetate], the concentration for a half-maximal effect (EC50) was found to be 13 nM. As to `COC(=O)CN(C(=O)c1cc(C(F)(F)F)nc(C(F)(F)F)c1)c1cnccc1-c1ccccc1F` [Example 196, Methyl 2-(N-(4-(2-fluorophenyl)pyridin-3-yl)-2,6-bis(trifluoromethyl)isonicotinamido)acetate], a half-maximal response (EC50) required 23 nM. `NC(=O)CN(C(=O)c1cc(C(F)(F)F)nc(C(F)(F)F)c1)c1cnccc1-c1ccccc1F` [Example 197, N-Carbamoylmethyl-N-[4-(2-fluoro-phenyl)-pyridin-3-yl]-2,6-bis-trifluoromethyl-isonicotinamide]: the EC50 was 105 nM. `COc1cc(C(=O)N(C)c2cnccc2-c2ccc(F)cc2OC)cc(Cl)n1` [Example 198, 2-Chloro-N-[4-(4-fluoro-2-methoxy-phenyl)-pyridin-3-yl]-6-methoxy-N-methyl-isonicotinamide] returned an EC50 of 92 nM. Compound `COc1cccc(F)c1-c1ccncc1N(CC(N)=O)C(=O)c1cc(C(F)(F)F)nc(C(F)(F)F)c1` [Example 199, N-Carbamoylmethyl-N-[4-(2-fluoro-6-methoxy-phenyl)-pyridin-3-yl]-2,6-bis-trifluoromethyl-isonicotinamide] gave a concentration giving a half-maximal response (EC50) of 33 nM. Compound `Cc1ccccc1-c1ccncc1N(C(=O)c1cc(C(F)(F)F)cc(C(F)(F)F)c1)C1COC1` [Example 200, N-Oxetan-3-yl-N-(4-o-tolyl-pyridin-3-yl)-3,5-bis-trifluoromethyl-benzamide] had an EC50 of 1200 nM. As for `COc1cc(F)ccc1-c1cc(Cl)ncc1N(C)C(=O)c1cc(C(F)(F)F)cc(S(C)(=O)=O)c1` [Example 201, N-[6-Chloro-4-(4-fluoro-2-methoxy-phenyl)-pyridin-3-yl]-3-methanesulfonyl-N-methyl-5-trifluoromethyl-benzamide], the concentration for a half-maximal effect (EC50) is 267 nM. In the case of `COc1cc(F)ccc1-c1cc(C)ncc1N(C)C(=O)c1cc(C(F)(F)F)cc(S(C)(=O)=O)c1` [Example 202, N-[4-(4-Fluoro-2-methoxy-phenyl)-6-methyl-pyridin-3-yl]-3-methanesulfonyl-N-methyl-5-trifluoromethyl-benzamide], the EC50 stood at 157 nM. In the case of `CCC(=O)CN(C(=O)c1cc(C(F)(F)F)nc(C(F)(F)F)c1)c1cnccc1-c1ccc(F)cc1OC` [Example 203, N-[4-(4-Fluoro-2-methoxy-phenyl)-pyridin-3-yl]-N-(2-oxo-butyl)-2,6-bis-trifluoromethyl-isonicotinamide], the EC50 is 54 nM. In turn, `CCC(=O)CN(C(=O)c1cc(C(F)(F)F)cc(S(C)(=O)=O)c1)c1cnccc1-c1ccc(F)cc1OC` [Example 204, N-[4-(4-Fluoro-2-methoxy-phenyl)-pyridin-3-yl]-3-methanesulfonyl-N-(2-oxo-butyl)-5-trifluoromethyl-benzamide] came in with an EC50 of 619 nM. Compound `COc1cccc(F)c1-c1ccncc1N(C)C(=O)c1cc(C(F)(F)F)cc(S(C)(=O)=O)c1` [Example 205, N-[4-(2-Fluoro-6-methoxy-phenyl)-pyridin-3-yl]-3-methanesulfonyl-N-methyl-5-trifluoromethyl-benzamide] returned an EC50 of 17 nM. The compound `COc1cc(C(=O)N(C)c2cnccc2-c2ccc(F)cc2OC)cc(C(F)(F)F)n1` [Example 206, N-[4-(4-Fluoro-2-methoxy-phenyl)-pyridin-3-yl]-2-methoxy-N-methyl-6-trifluoromethyl-isonicotinamide] yielded an EC50 of 23 nM. Compound `COc1cc(F)ccc1-c1ccncc1N(CC1(C)COC1)C(=O)c1cc(C(F)(F)F)nc(C(F)(F)F)c1` [Example 207, N-[4-(4-Fluoro-2-methoxy-phenyl)-pyridin-3-yl]-N-(3-methyl-oxctan-3-ylmethyl)-2,6-bis-trifluoromethyl-isonicotinamide] yielded a half-maximal effective concentration (EC50) of 318 nM.

Take `Cc1nn(C)c(C)c1-c1ccncc1N(C)C(=O)c1cc(C(F)(F)F)cc(C(F)(F)F)c1` [Example 208, N-Methyl-3,5-bis-trifluoromethyl-N-[4-(1,3,5-trimethyl-1H-pyrazol-4-yl)-pyridin-3-yl]-benzamide]: the EC50 was found to be 2960 nM. Compound `Cc1nc(C)c(-c2ccncc2N(C)C(=O)c2cc(C(F)(F)F)cc(C(F)(F)F)c2)s1` [Example 209, N-[4-(2,4-Dimethyl-thiazol-5-yl)-pyridin-3-yl]-N-methyl-3,5-bis-trifluoromethyl-benzamide] returned an EC50 of 1470 nM. `Cc1cn[nH]c1-c1ccncc1N(C)C(=O)c1cc(C(F)(F)F)cc(C(F)(F)F)c1` [Example 211, N-Methyl-N-[4-(4-methyl-2H-pyrazol-3-yl)-pyridin-3-yl]-3,5-bis-trifluoromethyl-benzamide] displayed a half-maximal effective concentration (EC50) of 959 nM.

For `COc1cc(F)ccc1-c1ccnc(Cl)c1N(C)C(=O)c1cc(C(F)(F)F)cc(S(C)(=O)=O)c1` [Example 212, N-[2-Chloro-4-(4-fluoro-2-methoxy-phenyl)-pyridin-3-yl]-3-methanesulfonyl-N-methyl-5-trifluoromethyl-benzamide], the EC50 is 75 nM. With `COC(=O)CN(C(=O)c1cc(C(F)(F)F)cc(S(C)(=O)=O)c1)c1cnccc1-c1ccccc1F` [Example 213, [[4-(2-Fluoro-phenyl)-pyridin-3-yl]-(3-methanesulfonyl-5-trifluoromethyl-benzoyl)-amino]-acetic acid methyl ester], the EC50 turned out to be 253 nM. In the case of `CS(=O)(=O)c1cc(C(=O)N(CC(F)(F)F)c2cnccc2-c2ccccc2F)cc(C(F)(F)F)c1` [Example 214, N-[4-(2-Fluoro-phenyl)-pyridin-3-yl]-3-methanesulfonyl-N-(2,2,2-trifluoro-ethyl)-5-trifluoromethyl-benzamide] it was 265 nM. The same measure for `CS(=O)(=O)c1cc(C(=O)N(CC(F)F)c2cnccc2-c2ccccc2F)cc(C(F)(F)F)c1` [Example 215, N-(2,2-Difluoro-ethyl)-N-[4-(2-fluoro-phenyl)-pyridin-3-yl]-3-methanesulfonyl-5-trifluoromethyl-benzamide]: 216 nM; for `COc1cc(F)ccc1-c1ccncc1N(C)C(=O)c1cc(SCCO)cc(C(F)(F)F)c1` [Example 216, N-[4-(4-Fluoro-2-methoxy-phenyl)-pyridin-3-yl]-3-(2-hydroxy-ethylsulfanyl)-N-methyl-5-trifluoromethyl-benzamide]: 38 nM. In the case of `COCCS(=O)(=O)c1cc(C(=O)N(C)c2cnccc2-c2ccc(F)cc2OC)cc(C(F)(F)F)c1` [Example 217, N-[4-(4-Fluoro-2-methoxy-phenyl)-pyridin-3-yl]-3-(2-methoxy-ethanesulfonyl)-N-methyl-5-trifluoromethyl-benzamide], the EC50 was 31 nM.

The term EC50 denotes the concentration that produces a half-maximal response.
